Source: ChEMBL document CHEMBL1201862, “PubChem BioAssay data set” (2004)
The source made the active and inactive calls.

Columns and labels:
Leucine aminopeptidase = target: T1, Leucine aminopeptidase (Plasmodium falciparum 3D7, UniProt Q8IL11); assay: P. falciparum M17LAP inhibitors, primary screen, biochemical, fluorogenic H-Leu-NHMec substrate, 1536-well (AID 1619); type: functional
T1 sequence (Q8IL11 whole entry): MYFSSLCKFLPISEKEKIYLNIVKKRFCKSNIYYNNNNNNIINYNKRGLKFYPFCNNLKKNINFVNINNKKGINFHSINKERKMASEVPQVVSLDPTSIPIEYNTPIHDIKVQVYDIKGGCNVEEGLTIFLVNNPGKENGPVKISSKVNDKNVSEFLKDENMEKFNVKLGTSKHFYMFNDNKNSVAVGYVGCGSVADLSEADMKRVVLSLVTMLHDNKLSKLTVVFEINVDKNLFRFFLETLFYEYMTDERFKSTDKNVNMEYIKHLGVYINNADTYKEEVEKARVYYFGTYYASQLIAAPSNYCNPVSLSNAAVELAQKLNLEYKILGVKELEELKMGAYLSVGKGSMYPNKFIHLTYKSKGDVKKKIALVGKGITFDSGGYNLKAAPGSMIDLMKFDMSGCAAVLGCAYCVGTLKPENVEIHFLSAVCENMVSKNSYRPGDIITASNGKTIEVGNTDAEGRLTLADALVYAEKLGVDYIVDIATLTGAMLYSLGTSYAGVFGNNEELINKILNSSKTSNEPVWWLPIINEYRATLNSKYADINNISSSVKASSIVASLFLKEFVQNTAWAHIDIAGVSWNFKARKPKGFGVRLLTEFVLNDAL

Aspartyl aminopeptidase = target: T2, Aspartyl aminopeptidase (Plasmodium falciparum 3D7, UniProt Q8I2J3); assay: Counterscreen for inhibitors of M1 and M17 aminopeptidases: QFRET-based biochemical high throughput dose response assay for inhibitors of the Plasmodium falciparum M18 Aspartyl Aminopeptidase (PFM18AAP). [Related PubChem assays: 1619 (Screening assay (M17LAP inhibitors).), 1445 (Screening assay (M1AAP inhibitors).)]
T2 sequence (Q8I2J3 whole entry): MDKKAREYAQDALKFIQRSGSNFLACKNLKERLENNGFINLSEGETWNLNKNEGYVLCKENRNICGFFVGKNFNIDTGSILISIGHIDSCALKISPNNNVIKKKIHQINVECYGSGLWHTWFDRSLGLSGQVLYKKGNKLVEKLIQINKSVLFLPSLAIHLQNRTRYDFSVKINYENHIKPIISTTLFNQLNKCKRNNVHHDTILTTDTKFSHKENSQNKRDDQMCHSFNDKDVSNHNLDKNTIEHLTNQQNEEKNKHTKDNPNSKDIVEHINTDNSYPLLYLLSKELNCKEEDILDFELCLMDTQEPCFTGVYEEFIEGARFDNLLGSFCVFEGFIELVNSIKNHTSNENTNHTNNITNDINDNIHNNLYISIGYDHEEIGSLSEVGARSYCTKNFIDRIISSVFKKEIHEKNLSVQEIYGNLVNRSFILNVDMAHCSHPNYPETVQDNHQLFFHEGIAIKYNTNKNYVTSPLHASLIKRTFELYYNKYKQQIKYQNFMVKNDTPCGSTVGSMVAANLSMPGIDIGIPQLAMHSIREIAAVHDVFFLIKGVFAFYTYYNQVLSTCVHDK

Procathepsin L = Procathepsin L (Homo sapiens, UniProt P07711); assay: CTSL1 protease inhibition – biochemical, QFRET, 1536-well, counter-screen for M1/M17 aminopeptidase inhibitor project, dose response (AID 2214)
Chain of Procathepsin L (P07711 whole entry): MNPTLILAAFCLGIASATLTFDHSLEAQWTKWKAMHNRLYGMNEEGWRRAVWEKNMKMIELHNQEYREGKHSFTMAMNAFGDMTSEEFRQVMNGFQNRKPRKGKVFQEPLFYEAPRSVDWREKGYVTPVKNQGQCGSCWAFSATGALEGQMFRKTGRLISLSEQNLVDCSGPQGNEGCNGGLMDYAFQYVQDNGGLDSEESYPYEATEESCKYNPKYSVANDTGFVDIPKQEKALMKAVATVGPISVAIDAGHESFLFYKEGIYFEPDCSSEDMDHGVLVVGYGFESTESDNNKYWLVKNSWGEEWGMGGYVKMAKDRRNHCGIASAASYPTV

Genome polyprotein = Genome polyprotein (dengue virus type 2, UniProt P29990); assay: flavivirus cap methylation enzyme inhibition – biochemical, confirmation dose response, primary screen (AID 588689); type: functional
[1] = target: T3, Probable nicotinate-nucleotide adenylyltransferase (Staphylococcus aureus (strain N315), UniProt P65502); type: functional, Staphylococcus aureus subsp. aureus N315;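 for IC50 Mean: confirmatory dose-response retesting of NadD inhibitor hits first found in an ultra-high-throughput screen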
T3 sequence (P65502 whole entry): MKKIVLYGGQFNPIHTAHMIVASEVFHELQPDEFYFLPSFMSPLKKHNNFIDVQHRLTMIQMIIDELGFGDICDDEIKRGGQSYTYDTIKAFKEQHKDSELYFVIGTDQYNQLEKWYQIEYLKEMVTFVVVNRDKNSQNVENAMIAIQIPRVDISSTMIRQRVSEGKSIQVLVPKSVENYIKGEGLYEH

[2] = target: T3, Probable nicotinate-nucleotide adenylyltransferase; type: functional, Staphylococcus aureus subsp. aureus N315; details: read-out: IC50_Mean
fMet-Leu-Phe receptor = fMet-Leu-Phe receptor (Homo sapiens, UniProt P21462); assay: formyl peptide receptor binders – dose response (AID 519); type: functional
Chain of fMet-Leu-Phe receptor (P21462 whole entry): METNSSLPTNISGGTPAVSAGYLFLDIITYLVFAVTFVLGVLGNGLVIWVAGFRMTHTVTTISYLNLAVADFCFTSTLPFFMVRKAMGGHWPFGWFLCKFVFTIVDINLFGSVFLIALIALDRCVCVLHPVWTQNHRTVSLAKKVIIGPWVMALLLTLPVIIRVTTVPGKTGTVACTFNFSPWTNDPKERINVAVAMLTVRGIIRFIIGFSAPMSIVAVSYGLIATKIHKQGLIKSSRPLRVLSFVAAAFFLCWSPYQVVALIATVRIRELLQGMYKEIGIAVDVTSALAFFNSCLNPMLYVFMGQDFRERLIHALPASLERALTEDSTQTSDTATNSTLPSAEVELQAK

[3] = target: Long-chain-fatty-acid--AMP ligase FadD28 (Mycobacterium tuberculosis, UniProt P9WQ59); assay: Fluorescence polarization aasay to screen for inhibitors that compete for the binding of FadD28 to a bisubstrate Measured in Biochemical System Using Plate Reader - 2147-01_Inhibitor_Dose_CherryPick_Activity.; type: functional, Mycobacterium tuberculosis H37Rv
Chain of Long-chain-fatty-acid--AMP ligase FadD28 (P9WQ59 whole entry): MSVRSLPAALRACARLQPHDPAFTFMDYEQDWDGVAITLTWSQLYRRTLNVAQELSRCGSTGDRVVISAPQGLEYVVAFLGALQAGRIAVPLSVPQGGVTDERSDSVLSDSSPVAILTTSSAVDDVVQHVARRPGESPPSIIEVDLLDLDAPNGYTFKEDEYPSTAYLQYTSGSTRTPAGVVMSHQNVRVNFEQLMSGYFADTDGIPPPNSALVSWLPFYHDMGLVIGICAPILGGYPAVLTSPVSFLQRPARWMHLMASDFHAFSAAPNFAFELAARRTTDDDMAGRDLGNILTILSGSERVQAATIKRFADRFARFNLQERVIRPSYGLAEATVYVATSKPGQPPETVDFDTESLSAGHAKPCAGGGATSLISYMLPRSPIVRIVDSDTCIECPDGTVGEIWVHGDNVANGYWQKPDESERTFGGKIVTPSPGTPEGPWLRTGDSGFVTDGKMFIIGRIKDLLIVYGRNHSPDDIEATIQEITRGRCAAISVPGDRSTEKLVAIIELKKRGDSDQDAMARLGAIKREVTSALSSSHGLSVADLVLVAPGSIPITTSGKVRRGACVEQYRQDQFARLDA

[4] = target: Luciferin 4-monooxygenase (Photinus pyralis, UniProt P08659); assay: inhibition of purified Photinus pyralis luciferase – biochemical, luminescence, dose response (AID 1891)
[5] = Luminescence Cell-Based Dose Confirmation HTS to Identify Inhibitors of Platelet Dense Granule Release. [Related pubchem assays: 1663 (Primary HTS), 1678 (Summary of Project)]; type: functional
Beta-galactosidase = Beta-galactosidase (Escherichia coli, UniProt Q8VNN2); assay: Dose response counterscreen for EBI2 assay utilizing the enzyme, b-galactosidase.; type: functional
[6] = target: Fructose-bisphosphate aldolase (Mycobacterium tuberculosis, UniProt P9WQA3); assay: Fluorescence-based biochemical high throughput dose response assay for inhibitors of the fructose-bisphosphate aldolase (FBA) of M. tuberculosis.; type: functional
Chain of Fructose-bisphosphate aldolase (P9WQA3 whole entry): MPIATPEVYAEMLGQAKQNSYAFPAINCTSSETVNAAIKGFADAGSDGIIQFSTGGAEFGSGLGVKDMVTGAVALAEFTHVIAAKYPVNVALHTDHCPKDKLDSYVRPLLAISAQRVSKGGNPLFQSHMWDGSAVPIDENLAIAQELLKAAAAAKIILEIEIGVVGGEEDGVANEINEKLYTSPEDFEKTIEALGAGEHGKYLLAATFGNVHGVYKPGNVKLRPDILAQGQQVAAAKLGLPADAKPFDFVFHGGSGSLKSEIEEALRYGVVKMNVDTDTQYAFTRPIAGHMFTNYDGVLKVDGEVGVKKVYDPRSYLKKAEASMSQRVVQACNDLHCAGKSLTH

[7] = system: Streptococcus sp. 'group A'; assay: Streptococcus pyogenes SK(-)GAS viability under kanamycin – luminescence, BacTiterGlo, confirmation, counter-screen for streptokinase expression inhibitor project, dose response (AID 1900); type: functional, organism-based
Streptokinase A = target: T4, Streptokinase A (Streptococcus pyogenes serotype M1, UniProt P10520); assay: viability-normalized secreted streptokinase activity reduction – plasminogen activation absorbance, OD405, dose response (AID 1914); type: functional, Streptococcus pyogenes M1 GAS;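 note: secreted streptokinase activity via plasminogen activation per viability signal from cell pellet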
T4 sequence (P10520 whole entry): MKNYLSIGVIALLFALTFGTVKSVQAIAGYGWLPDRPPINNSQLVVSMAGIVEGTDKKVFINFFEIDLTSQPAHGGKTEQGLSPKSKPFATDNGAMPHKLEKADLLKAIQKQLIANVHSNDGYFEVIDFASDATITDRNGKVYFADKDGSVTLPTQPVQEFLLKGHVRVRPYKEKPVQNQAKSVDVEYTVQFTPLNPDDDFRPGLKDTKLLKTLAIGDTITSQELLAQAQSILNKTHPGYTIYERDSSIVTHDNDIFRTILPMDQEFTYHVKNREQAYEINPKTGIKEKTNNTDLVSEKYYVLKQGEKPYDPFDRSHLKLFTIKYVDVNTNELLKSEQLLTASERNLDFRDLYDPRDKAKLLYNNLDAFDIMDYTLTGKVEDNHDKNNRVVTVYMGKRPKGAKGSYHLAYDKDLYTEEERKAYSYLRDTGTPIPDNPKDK

Streptococcus = assay: GAS UMAA2166 growth inhibition – luminescence, BacTiterGlo, counter-screen for streptokinase expression inhibitor project, dose response (AID 1915); type: functional, organism-based;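 note: potency for reduction of bacterial viability or growth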
Mu-type opioid receptor = Mu-type opioid receptor (Homo sapiens, UniProt P35372); type: functional, cell-based;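 note: U2OS cells with beta-arrestin recruitment to OPRM1 by beta-gal complementation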
[8] = target: 5-hydroxytryptamine receptor 2A (Mus musculus, UniProt P35363); type: functional, cell-based;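 note: CHO-K1 cells with tagged receptor and beta-arrestin; agonist potency measured as compound-induced activation of the receptor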
Chain of 5-hydroxytryptamine receptor 2A (P35363 whole entry): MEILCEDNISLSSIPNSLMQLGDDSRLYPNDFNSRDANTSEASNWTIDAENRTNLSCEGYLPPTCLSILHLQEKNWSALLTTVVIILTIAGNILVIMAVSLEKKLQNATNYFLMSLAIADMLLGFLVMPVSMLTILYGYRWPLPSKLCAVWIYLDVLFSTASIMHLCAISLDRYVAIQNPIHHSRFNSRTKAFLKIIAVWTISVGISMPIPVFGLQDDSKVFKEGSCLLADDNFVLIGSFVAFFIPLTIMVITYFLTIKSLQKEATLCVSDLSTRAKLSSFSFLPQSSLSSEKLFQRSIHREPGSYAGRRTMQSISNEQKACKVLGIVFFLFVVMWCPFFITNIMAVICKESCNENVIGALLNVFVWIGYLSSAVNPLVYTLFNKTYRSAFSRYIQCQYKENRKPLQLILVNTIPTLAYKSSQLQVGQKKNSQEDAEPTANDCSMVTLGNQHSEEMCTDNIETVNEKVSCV

[9] = target: 26S proteasome non-ATPase regulatory subunit 14 (Homo sapiens, UniProt O00487); assay: inhibition of proteasome subunit RPN11 – biochemical, fluorescence polarization, uHTS hits, confirmation (AID 602368); type: functional
[10] = target: 72 kDa type IV collagenase (Homo sapiens, UniProt P08253); assay: Dose Response validation of uHTS RPN11 inhibitor hits using a MMP-2 Fluorescence assay.; type: functional
Prothrombin = Prothrombin (Bos taurus, UniProt P00735); assay: thrombin protease inhibitors – biochemical, fluorescence polarization, uHTS hits, dose response (AID 602369); type: functional
[11] = target: T5, Small ubiquitin-related modifier 1 (Homo sapiens, UniProt P63165); assay: SUMO1 protein interaction blockers, potency – biochemical, fluorescence polarization, uHTS hits, dose response (AID 624382); type: functional; details: read-out: IC50_Mean
T5 sequence (P63165 whole entry): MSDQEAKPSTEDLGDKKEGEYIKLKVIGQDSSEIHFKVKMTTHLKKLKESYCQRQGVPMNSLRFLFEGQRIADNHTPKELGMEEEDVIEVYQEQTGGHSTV

[12] = target: T5, Small ubiquitin-related modifier 1; assay: SUMO1 protein-protein binding blockers, potency – biochemical, FRET, dose response (AID 624383); type: functional; details: read-out: IC50_Mean
[13] = target: T6, Rac GTPase-activating protein 1 (Homo sapiens, UniProt Q9H0H5); assay: blockers of MgcRacGAP-driven Rac1 GTP hydrolysis – biochemical, ADP Hunter fluorescence, primary and confirmatory, confirmation (AID 624330); type: functional
T6 sequence (Q9H0H5 whole entry): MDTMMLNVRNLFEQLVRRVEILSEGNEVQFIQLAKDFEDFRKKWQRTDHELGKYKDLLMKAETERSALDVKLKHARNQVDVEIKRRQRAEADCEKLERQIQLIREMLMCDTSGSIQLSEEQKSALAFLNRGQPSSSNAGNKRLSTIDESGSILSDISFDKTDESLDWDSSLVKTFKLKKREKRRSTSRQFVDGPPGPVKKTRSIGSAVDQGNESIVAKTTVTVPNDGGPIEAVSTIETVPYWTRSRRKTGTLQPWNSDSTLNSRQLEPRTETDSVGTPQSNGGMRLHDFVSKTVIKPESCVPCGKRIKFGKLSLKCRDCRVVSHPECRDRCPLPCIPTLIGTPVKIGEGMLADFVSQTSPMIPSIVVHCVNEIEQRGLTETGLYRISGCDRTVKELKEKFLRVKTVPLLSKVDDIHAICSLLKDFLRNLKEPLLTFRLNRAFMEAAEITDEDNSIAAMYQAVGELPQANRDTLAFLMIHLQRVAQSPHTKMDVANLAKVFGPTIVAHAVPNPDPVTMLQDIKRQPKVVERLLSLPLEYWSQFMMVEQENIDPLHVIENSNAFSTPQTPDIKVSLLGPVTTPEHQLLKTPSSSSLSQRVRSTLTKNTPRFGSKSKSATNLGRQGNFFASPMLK

[14] = target: T7, Sentrin-specific protease 1 (Homo sapiens, UniProt Q9P0U3); assay: SENP1 catalytic domain blockers, concentration series – biochemical, kinetic FRET, dose response (AID 651697); type: functional; details: read-out: IC50_Mean
T7 sequence (Q9P0U3 whole entry, the tested form may be a part): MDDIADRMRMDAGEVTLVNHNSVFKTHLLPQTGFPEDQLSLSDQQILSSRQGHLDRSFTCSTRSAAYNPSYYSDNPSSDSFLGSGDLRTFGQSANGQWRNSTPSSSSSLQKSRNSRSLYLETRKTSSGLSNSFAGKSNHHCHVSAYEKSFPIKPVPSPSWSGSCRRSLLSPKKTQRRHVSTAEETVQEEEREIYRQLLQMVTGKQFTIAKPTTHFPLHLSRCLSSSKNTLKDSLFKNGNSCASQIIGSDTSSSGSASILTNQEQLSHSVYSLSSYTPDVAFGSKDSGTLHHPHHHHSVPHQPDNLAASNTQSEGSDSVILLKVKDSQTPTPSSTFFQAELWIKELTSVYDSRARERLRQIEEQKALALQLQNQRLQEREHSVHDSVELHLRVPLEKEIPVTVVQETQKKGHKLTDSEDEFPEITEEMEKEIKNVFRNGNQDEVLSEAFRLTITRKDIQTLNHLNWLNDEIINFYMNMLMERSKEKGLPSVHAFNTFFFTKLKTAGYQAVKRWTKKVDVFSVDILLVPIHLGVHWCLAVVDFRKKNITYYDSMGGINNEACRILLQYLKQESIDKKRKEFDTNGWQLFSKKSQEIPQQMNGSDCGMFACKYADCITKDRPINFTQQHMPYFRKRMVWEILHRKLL

[15] = target: T7, Sentrin-specific protease 1; assay: Dose response confirmation of small molecule inhibitors of the catalytic domain of the SUMO protease, SENP1 in a FRET assay.; type: functional; details: read-out: IC50_Mean
[16] = mouse fibroblast viability loss – cell-based, cherry-pick samples, set 2, cytotoxicity control for T. cruzi growth inhibitor project, dose response (AID 651817); type: functional; details: NIH3T3
[17] = target: T8, Alkaline phosphatase, tissue-nonspecific isozyme (Homo sapiens, UniProt P05186)
T8 sequence (P05186 whole entry): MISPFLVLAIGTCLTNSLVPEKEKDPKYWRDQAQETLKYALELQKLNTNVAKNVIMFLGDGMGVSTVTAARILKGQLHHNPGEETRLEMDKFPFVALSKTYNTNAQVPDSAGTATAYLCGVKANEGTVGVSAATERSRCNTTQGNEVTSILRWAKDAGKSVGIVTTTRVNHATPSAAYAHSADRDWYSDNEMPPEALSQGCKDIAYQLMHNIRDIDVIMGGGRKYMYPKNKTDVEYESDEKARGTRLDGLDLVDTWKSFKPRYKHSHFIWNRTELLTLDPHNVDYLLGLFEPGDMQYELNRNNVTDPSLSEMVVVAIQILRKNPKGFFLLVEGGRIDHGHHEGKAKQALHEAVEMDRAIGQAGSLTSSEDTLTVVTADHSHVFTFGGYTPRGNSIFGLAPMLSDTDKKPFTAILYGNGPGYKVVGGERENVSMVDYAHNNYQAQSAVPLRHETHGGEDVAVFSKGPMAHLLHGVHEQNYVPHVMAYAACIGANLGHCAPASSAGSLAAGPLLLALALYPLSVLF

Beta-lactamase [18] = target: Beta-lactamase (Pseudomonas aeruginosa, UniProt Q79MP6);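 note: biochemical dose-response test of metallo-beta-lactamase enzyme inhibition, read out by epi-absorbance; purified recombinant IMP-1 metallo-beta-lactamase with nitrocefin as substrate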
Chain of Beta-lactamase (Pseudomonas aeruginosa, UniProt Q79MP6) (Q79MP6 whole entry): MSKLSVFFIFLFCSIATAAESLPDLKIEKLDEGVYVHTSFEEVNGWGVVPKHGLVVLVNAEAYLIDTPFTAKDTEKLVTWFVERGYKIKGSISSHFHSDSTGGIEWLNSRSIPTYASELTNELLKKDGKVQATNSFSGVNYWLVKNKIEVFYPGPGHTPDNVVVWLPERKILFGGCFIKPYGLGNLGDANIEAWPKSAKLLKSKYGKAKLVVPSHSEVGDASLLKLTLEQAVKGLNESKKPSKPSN

Beta-lactamase [19] = target: Beta-lactamase (Salmonella choleraesuis (strain SC-B67), UniProt Q5J463)
Chain of Beta-lactamase (Salmonella choleraesuis (strain SC-B67), UniProt Q5J463) (Q5J463 whole entry): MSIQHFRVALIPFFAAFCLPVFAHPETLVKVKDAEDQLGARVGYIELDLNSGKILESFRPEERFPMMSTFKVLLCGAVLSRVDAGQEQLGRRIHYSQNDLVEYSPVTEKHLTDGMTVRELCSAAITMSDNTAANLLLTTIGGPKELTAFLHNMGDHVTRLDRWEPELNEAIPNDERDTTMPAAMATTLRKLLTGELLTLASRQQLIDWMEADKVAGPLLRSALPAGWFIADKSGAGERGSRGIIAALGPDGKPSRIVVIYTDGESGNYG

[20] = target: ATP-dependent translocase ABCB1 (Homo sapiens, UniProt P08183); assay: inhibition of P-gp mediated JC-1 efflux – Jurkat-DNR cells, flow cytometry, dose response (AID 1689); type: functional
Chain of ATP-dependent translocase ABCB1 (P08183 whole entry): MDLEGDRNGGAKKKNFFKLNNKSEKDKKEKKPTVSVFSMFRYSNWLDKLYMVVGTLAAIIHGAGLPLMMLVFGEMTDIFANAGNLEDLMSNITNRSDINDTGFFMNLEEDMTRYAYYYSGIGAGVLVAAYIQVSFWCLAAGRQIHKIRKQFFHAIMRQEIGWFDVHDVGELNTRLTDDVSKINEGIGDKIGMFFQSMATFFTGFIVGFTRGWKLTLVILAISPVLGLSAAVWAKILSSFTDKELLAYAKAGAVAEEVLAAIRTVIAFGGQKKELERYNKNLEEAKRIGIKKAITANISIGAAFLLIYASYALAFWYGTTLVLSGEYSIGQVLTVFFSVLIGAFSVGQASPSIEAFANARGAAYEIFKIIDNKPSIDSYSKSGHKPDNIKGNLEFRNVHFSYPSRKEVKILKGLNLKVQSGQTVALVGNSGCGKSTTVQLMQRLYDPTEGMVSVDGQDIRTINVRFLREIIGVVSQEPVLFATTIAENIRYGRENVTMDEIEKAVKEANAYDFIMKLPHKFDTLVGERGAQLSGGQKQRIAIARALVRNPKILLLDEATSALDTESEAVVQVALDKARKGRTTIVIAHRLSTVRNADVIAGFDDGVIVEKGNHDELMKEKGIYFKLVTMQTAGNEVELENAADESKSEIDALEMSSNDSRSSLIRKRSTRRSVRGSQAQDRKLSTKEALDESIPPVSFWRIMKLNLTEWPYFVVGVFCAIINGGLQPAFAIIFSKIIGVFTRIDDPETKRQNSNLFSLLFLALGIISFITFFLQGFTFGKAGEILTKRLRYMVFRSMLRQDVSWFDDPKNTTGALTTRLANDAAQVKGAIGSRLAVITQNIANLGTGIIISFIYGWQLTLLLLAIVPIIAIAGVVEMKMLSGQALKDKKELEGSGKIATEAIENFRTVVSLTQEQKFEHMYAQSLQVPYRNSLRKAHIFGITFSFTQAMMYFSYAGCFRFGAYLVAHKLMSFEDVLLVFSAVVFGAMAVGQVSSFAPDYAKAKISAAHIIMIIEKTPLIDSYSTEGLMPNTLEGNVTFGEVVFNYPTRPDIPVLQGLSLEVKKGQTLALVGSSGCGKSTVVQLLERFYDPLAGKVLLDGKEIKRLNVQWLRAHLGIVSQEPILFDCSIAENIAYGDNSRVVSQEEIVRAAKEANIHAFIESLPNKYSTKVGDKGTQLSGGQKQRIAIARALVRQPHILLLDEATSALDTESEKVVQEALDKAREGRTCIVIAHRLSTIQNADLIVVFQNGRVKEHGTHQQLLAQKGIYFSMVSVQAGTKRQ

CCOC(=O)c1c(-c2ccc(-c3ccccc3)cc2)csc1NC(=O)C1C2CCC(O2)C1C(=O)O (stereo not given)
IC50 (Leucine aminopeptidase): 6.09 µM (active)
IC50 (Aspartyl aminopeptidase): 38.5 µM (not active)
IC50 (Procathepsin L): > 59.6 µM (not active)
IC50 (Genome polyprotein): 29.6 µM (active)
IC50 [1]: 5.15 µM (active)
IC50 [2]: 15.3 µM (active)
Ki (fMet-Leu-Phe receptor): > 66.7 µM (inactive)

CCc1ccc(NC(=S)N(Cc2ccc(Cl)cc2)Cc2ccc(C(=O)O)cc2)cc1
AC50 [3]: > 100 µM (inactive)

CNC(=O)/C(C#N)=C/c1ccc(-c2nc3ccccc3s2)o1
EC50 [4]: > 112 µM (not active)
EC50 [5]: > 112 µM (not active)
IC50 (Beta-galactosidase): > 80 µM (inactive)

CCCn1c(-c2cc(OC)c(OC)c(OC)c2)nc2c1c(=O)[nH]c(=O)n2Cc1ccccc1
IC50 [6]: 1.32 µM (active)

Nc1nc(CN2CCN(c3ccccc3)CC2)nc(N2CCCc3ccccc32)n1
EC50 [7]: 9.04 µM (active)
EC50 (Streptokinase A): > 150 µM (not active)
EC50 (Streptococcus): > 150 µM (not active)
EC50 (Mu-type opioid receptor): 92.5 µM (inactive)
EC50 [8]: 0.939 µM (active)

CCCc1c(C)nc2ccc(C(=O)O)cc2c1S
IC50 [9]: 22.8 µM (active)
IC50 [10]: > 100 µM (inactive)
IC50 (Prothrombin): 72.7 µM (active)
IC50 [11]: > 66.6 µM (inactive)
IC50 [12]: 18 µM (active)
IC50 [13]: 72.6 µM (active)

CC(=O)Oc1ccc(Cl)cc1/C=C/c1ccc2ccccc2n1
IC50 [14]: 3.28 µM (active)
IC50 [15]: 2.22 µM (active)

C[C@@H]1CN([C@H](C)CO)C(=O)c2cccc(NC(=O)c3nc4ccccc4s3)c2O[C@H]1CN(C)S(=O)(=O)c1ccccc1
AC50 [16]: 39 µM (inactive)

CCN1/C(=C/C=C/c2oc3ccc4ccccc4c3[n+]2CC)Oc2ccc3ccccc3c21
EC50 [17]: > 100 µM (not active)
IC50 (Beta-lactamase [18]): > 59.6 µM (inactive)
IC50 (Beta-lactamase [19]): > 59.6 µM (inactive)
EC50 [20]: 0.713 µM (active)
